1 compound from patent publication US20130274104A1, “AGROCHEMICAL MIXTURES FOR INCREASING THE HEALTH OF A PLANT” (BASF SE, priority 2010, published 2013) can be followed below.

What all share (type): in vivo
The subject of experiment [1] is Soybeans. The experiment in a line: Soybean leaf chlorophyll content, FIELD SCOUT CM1000 chlorophyll meter, Sparta, Ill. As to conditions: Harpinαβ 70 g/ha, Pyraclostrobin 0.44 l/ha. As to the method:
(§1) Soybeans were grown in 2009 at eight locations in the U.S.A.: Jefferson, I A, Seymour, Ill., Sparta, Ill., Wyoming, Ill., Sheridan, Ind., Ozora, Mo., York, Nebr., and Centerville, S. Dak. The soybeans were planted at the local standard seeding rate with local standard row spacing. Each trial was setup as randomized complete block design with 6 replications. Plots consisted of 4 rows with the center two rows treated and harvested. Harvested plot size was minimum 15 m^2.
The active ingredients were used as formulations. The formulations were used in the dose rates given below. The products were applied when the soybeans had developed four to six trifoliates. Pyraclostrobin (compound A) was applied once as HEADLINE® (250 g active per liter; EC formulation) with a product rate of 0.44 I/ha.
The harpinαβ peptide (compound B) was applied as the experimental WG formulation EBC-351 (1% active ingredient) with a product rate of 70 g/ha. The mixture comprising pyraclostrobin and harpinαβ as shown in table 2 below was applied as a tankmix of both formulations.
At the Sparta, Ill., location, the chlorophyll content (a well known indicator of the health of a plant) of 5 plants in a plot was measured with a FIELD SCOUT CM1000™ (Spectrum Technologies, Plainfield, Ill.) chlorophyll meter. Values were reported as a mean value per plot. The FIELD SCOUT CM1000™ senses light at wavelengths of 700 nm and 840 nm to estimate quantity of chlorophyll in leaves. The ambient and reflected light at each wavelength is measured. Light absorbtion at 700 nm by chlorophyll reduces the reflection at this wavelength whereas the light at 840 nm is unaffected and serves as an indication of light reflection due to physical characteristics of the leaf like a hairy leaf surface. Subsequently, a chlorophyll index value (0-999) is calculated from the measured ambient and reflected light data.
Based on the index values the efficacy of the treatments were calculated as described for the grain yield above. Similarly, the expected efficacy was estimated using Colby's formula as described above.

In experiment [2] the test system is Soybeans. The experiment in a line: Soybean field trials 2009, grain yield as indicator of plant health. As to the method:
as §1
The active ingredients were used as formulations. The formulations were used in the dose rates given below. The products were applied when the soybeans had developed four to six trifoliates.
The mixture comprising pyraclostrobin and harpinαβ as shown in table 2 below was applied as a tankmix of both formulations.
Grain yield (kg per ha) was assessed as an indicator of plant health (table 2) by harvesting the plants in the center rows of a plot. The efficacy was calculated as % increase of yield in the treatments compared to the untreated control:
(§2) E=a/b−1•100 • a corresponds to the grain yield of the treated plants in kg/ha and • b corresponds to the grain yield of the untreated (control) plants in kg/ha

Experiment [3] concerns Maize (corn). The experiment in a line: Maize field trials 2009, grain yield as indicator of plant health. Conditions: BBCH 55/57; for Yield (kg/ha): seven US locations. As to the method: Maize (corn) was grown in 2009 at seven locations in the U.S.A: Wyoming, Ill., Carlyle, Ill., Sparta, Ill., Manilla, Iowa, Blue Earth, Minn., Aurora, Nebr., and Tekamah, Nebr. The maize crop was planted at the local standard seeding rate with local standard row spacing. Each trial was set up as randomized complete block design with 8 replications. Plots consisted of 6-8 rows with the center two rows treated and harvested. Harvested plot size was at minimum 18.48 m^2.
The active ingredients were used as formulations. The formulations were used in the dose rates given below. The products were applied at tassel emergence (BBCH 55/57). […] The untreated control plots were treated with water only.
Grain yield (kg per ha) as an indicator for the health of a plant was assessed by harvesting the plants in the center rows of a plot (table 1). The efficacy was calculated as % increase of yield in the treatments compared to the untreated control using the following formula:
as §2

Take `COC(=O)N(OC)c1ccccc1COc1ccn(-c2ccc(Cl)cc2)n1` [Pyraclostrobin]: in experiment [1], the “effect on leaf chlorophyll content, in words” value is on record as “increases the chlorophyll content”. Also, the “OE [%] (Observed efficacy, chlorophyll index compared to the untreated control)” value in experiment [1] (Sparta, Ill.) amounted to 14.13%. Moreover, in experiment [1] (Sparta, Ill., mean value per plot, 5 plants), the “CC [0-999] (Chlorophyll Content, chlorophyll index value)” value turned out to be 773.50. Further, the “OE [%] (Observed efficacy, % increase of yield compared to the untreated control)” value in experiment [2] (Harpinαβ 70 g/ha, Pyraclostrobin 0.44 l/ha, average of all trials) came out at 0.1%; in experiment [3] (Harpinαβ 35 g/ha, Pyraclostrobin 0.3 l/ha, alone or combined) it was 1.10%; in experiment [3] (Pyraclostrobin 0.6 l/ha, Harpinαβ 35 g/ha in the combination), 0.10%. In experiment [2] (Pyraclostrobin 0.44 l/ha applied at early soybean development), the “effect on grain yield, in words” value is reported as “did not increase the grain yield on an average”. The “Yield (kg/ha)” value in experiment [2] (product rates Harpinαβ 70 g/ha (1%), Pyraclostrobin 0.44 l/ha (250 g/l), four to six trifoliates, eight US locations) worked out at 3319 kg/ha; in experiment [3] (product rates Harpinαβ 35 g/ha (1%), Pyraclostrobin 0.3 l/ha (250 g/l), alone or combined), 13218.9 kg/ha; in experiment [3] (product rates Pyraclostrobin 0.6 l/ha (250 g/l), Harpinαβ 35 g/ha (1%) in the combination) it was 13087.1 kg/ha.
